Assay results taken from ChEMBL document CHEMBL1201862, “PubChem BioAssay data set” (2004).
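Briefly, cells in 96-well plates were exposed to five compound concentrations for 48 h, and endpoints were estimated by linear interpolation. GI50 marks 50% less growth.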 Activity calls are given as the source filed them. Cut-off read from the data, not from the text of the source: active = GI50 up to about 1.1 µM and inactive = higher.

Key:
Assay in all cases: DTP human tumour cell line panel, 48 h
A498 = system: A498
A549 = system: A549
CAKI-1 = system: CAKI-1
EKVX = system: EKVX
HCC 2998 = system: HCC 2998
HCT-116 = system: HCT-116
HCT-15 = system: HCT-15
HT-29 = system: HT-29
M14 = system: M14
MCF7 = system: MCF7
NCI-H23 = system: NCI-H23
NCI-H522 = system: NCI-H522
OVCAR-3 = system: OVCAR-3
OVCAR-4 = system: OVCAR-4
RXF 393 = system: RXF 393
SF-295 = system: SF-295
SF-539 = system: SF-539
SNB-19 = system: SNB-19
UACC-257 = system: UACC-257
NCI-H460 = system: NCI-H460

Row | Structure (SMILES) | GI50 (A498) | GI50 (A549) | GI50 (CAKI-1) | GI50 (EKVX) | GI50 (HCC 2998) | GI50 (HCT-116) | GI50 (HCT-15) | GI50 (HT-29) | GI50 (M14) | GI50 (MCF7) | GI50 (NCI-H23) | GI50 (NCI-H522) | GI50 (OVCAR-3) | GI50 (OVCAR-4) | GI50 (RXF 393) | GI50 (SF-295) | GI50 (SF-539) | GI50 (SNB-19) | GI50 (UACC-257) | GI50 (NCI-H460)
1 | S=C(Nc1ccc2c(c1)oc1ccccc12)c1cccs1 | > 100 µM (inactive) | 66.7 µM (inactive) | 52.8 µM (inactive) | 38.5 µM (inactive) | > 100 µM (inactive) | > 100 µM (inactive) | > 100 µM | 3.66 µM (inactive) | > 100 µM (inactive) | 24.1 µM (inactive) | > 100 µM (inactive) | 20.8 µM (inactive) | 23 µM (inactive) | 30.6 µM (inactive) | 27.9 µM (inactive) | 16.6 µM (inactive) | 26.2 µM (inactive) | 38.1 µM (inactive) | > 100 µM (inactive) | 
2 | COc1ccc(-n2nnc3c(C#N)c(-c4ccccc4)c(C)n3c2=O)cc1 | 38.1 µM (inactive) | > 100 µM (inactive) | 45.4 µM (inactive) | 62.2 µM (inactive) | 72.6 µM (inactive) | 43.2 µM (inactive) | 31.4 µM | 43.9 µM (inactive) | 81.8 µM (inactive) | 40.2 µM (inactive) | 80.4 µM (inactive) | 22.6 µM (inactive) | 28.2 µM (inactive) | 28.8 µM (inactive) | 28.4 µM (inactive) | 54.6 µM (inactive) | 31.7 µM (inactive) | 78.7 µM (inactive) | 85.5 µM (inactive) | 51.4 µM (inactive)
3 | CC1(C)CCC[C@@]2(C)C1CC[C@@]1(CO1)[C@@H]2/C=C\C(C=O)CC=O (some centres not stated) | > 100 µM (inactive) | > 100 µM (inactive) | > 100 µM (inactive) | > 100 µM (inactive) | > 100 µM (inactive) | 62.2 µM (inactive) | 73.6 µM | > 56.6 µM (inactive) | > 100 µM (inactive) | > 100 µM (inactive) | > 100 µM (inactive) | 42.4 µM (inactive) | > 100 µM (inactive) | > 100 µM (inactive) | 99.8 µM (inactive) | > 100 µM (inactive) | > 87.3 µM (inactive) | > 100 µM (inactive) | > 100 µM (inactive) | > 100 µM (inactive)
4 | COC(C)(C)CCc1[nH]c2ccccc2c1CC(=O)NCCc1cncn1C | 34.3 µM (inactive) | > 100 µM (inactive) | > 100 µM (inactive) | > 100 µM (inactive) | > 100 µM (inactive) | > 100 µM (inactive) | > 100 µM | > 100 µM (inactive) | > 100 µM (inactive) | > 100 µM (inactive) | > 100 µM (inactive) | > 100 µM (inactive) | > 100 µM (inactive) | > 100 µM (inactive) | > 100 µM (inactive) |  | > 100 µM (inactive) | > 100 µM (inactive) | > 100 µM (inactive) | > 100 µM (inactive)
5 | OC1NC2Nc3ccccc3NC2NC1O (configuration not stated) | > 100 µM (inactive) | > 100 µM (inactive) | > 100 µM (inactive) | > 100 µM (inactive) | > 100 µM (inactive) | > 100 µM (inactive) | > 100 µM | > 100 µM (inactive) | > 100 µM (inactive) | > 100 µM (inactive) | > 100 µM (inactive) | > 100 µM (inactive) | > 100 µM (inactive) | > 100 µM (inactive) | > 100 µM (inactive) | > 100 µM (inactive) | > 100 µM (inactive) | > 100 µM (inactive) | > 100 µM (inactive) | > 100 µM (inactive)
6 | CN1C(=O)[C@](C)(Cc2ccc(F)cc2)N(C(=O)OC(C)(C)C)[C@@H]1C(C)(C)C | 23.4 µM (inactive) | 42.4 µM (inactive) | 36.4 µM (inactive) | 47.1 µM (inactive) | 24.3 µM (inactive) | 30 µM (inactive) | 37.8 µM | 22.1 µM (inactive) | 41.6 µM (inactive) | 22.8 µM (inactive) | 33.1 µM (inactive) | 23.1 µM (inactive) | 31.5 µM (inactive) | 43.1 µM (inactive) | 21.3 µM (inactive) | 20.3 µM (inactive) | 41.2 µM (inactive) | > 100 µM (inactive) | 30.5 µM (inactive) | 31.5 µM (inactive)
7 | Cc1cccc(NC(=O)O/N=C(\Cl)C(C)C)c1 | 18.5 µM (inactive) | 20.5 µM (inactive) | 1.74 µM (inactive) | 6.03 µM (inactive) | 19.1 µM (inactive) | 3.37 µM (inactive) | 2.25 µM | 10.4 µM (inactive) | 4.58 µM (inactive) | 10 µM (inactive) | 15.1 µM (inactive) | 1.54 µM (inactive) | 6.15 µM (inactive) | 14 µM (inactive) | 13.9 µM (inactive) | 17.5 µM (inactive) | 6.21 µM (inactive) | 20.3 µM (inactive) | 17.3 µM (inactive) | 16.8 µM (inactive)
8 | O=C1C/C(=C\c2ccccc2)C(=O)c2ccccc2N1 | 18.8 µM (inactive) | 25.5 µM (inactive) | 18.4 µM (inactive) | 24.1 µM (inactive) | 19 µM (inactive) | 14.7 µM (inactive) | 24.7 µM | 18.4 µM (inactive) | 23.2 µM (inactive) | 81.7 µM (inactive) | 24.7 µM (inactive) | 22.9 µM (inactive) | 25 µM (inactive) | 20 µM (inactive) | 19.6 µM (inactive) | 17.4 µM (inactive) | 20.2 µM (inactive) | 14.9 µM (inactive) | 26.9 µM (inactive) | 29.3 µM (inactive)
9 | C=C(C(=O)O)[C@@H]1C[C@@H](OC(C)=O)[C@]2(C)CC/C=C(\C)CCC[C@H](C)[C@H](O)[C@@H]1O2 | > 100 µM (inactive) | 43 µM (inactive) | 71 µM (inactive) | 45.5 µM (inactive) | > 100 µM (inactive) | 52.8 µM (inactive) | 41.8 µM | 47.3 µM (inactive) | 28.2 µM (inactive) | 26.7 µM (inactive) |  | 18 µM (inactive) | 37.4 µM (inactive) | > 100 µM (inactive) | 18.5 µM (inactive) | 24.7 µM (inactive) | 18 µM (inactive) |  | 47 µM (inactive) | 66.4 µM (inactive)
10 | COc1cc2c(cc1OC)C1(c3ccccc3)CN(C2)Cc2cc(OC)c(OC)cc21 | 35.2 µM (inactive) | 46.3 µM (inactive) | 40 µM (inactive) | 55.5 µM (inactive) | 21.8 µM (inactive) | 24.9 µM (inactive) | 24.3 µM | 29 µM (inactive) | 23.9 µM (inactive) | 33.3 µM (inactive) | 24.5 µM (inactive) | 26.2 µM (inactive) | 54.6 µM (inactive) | 23.3 µM (inactive) | 22.8 µM (inactive) | 32.6 µM (inactive) | 19.3 µM (inactive) | 44.5 µM (inactive) | 40.2 µM (inactive) | 30.2 µM (inactive)
11 | CC(Br)CN1CCOCC1 (configuration not stated) | > 100 µM (inactive) | > 100 µM (inactive) | > 100 µM (inactive) | > 100 µM (inactive) | > 100 µM (inactive) | > 100 µM (inactive) | > 100 µM | > 100 µM (inactive) | > 100 µM (inactive) | > 100 µM (inactive) | > 100 µM (inactive) | > 100 µM (inactive) | > 100 µM (inactive) |  | > 100 µM (inactive) |  | > 100 µM (inactive) | > 100 µM (inactive) | > 100 µM (inactive) | > 100 µM (inactive)
12 | CCC(C)C1=C(O)[N+]2([O-])Oc3ccc(-c4c(O)c(O)c(-c5ccc(O)cc5)c(OC(C)=O)c4OC(C)=O)cc3OC2(C(C)CC)C(=O)N1O (configuration not stated) | > 50 µM (inactive) | > 50 µM (inactive) | > 50 µM (inactive) | 39.5 µM (inactive) | 0.005 µM (active) | 18.2 µM (inactive) | > 50 µM | > 50 µM (inactive) | > 50 µM (inactive) | > 50 µM (inactive) | > 50 µM (inactive) | 23.5 µM (inactive) | > 50 µM (inactive) | > 50 µM (inactive) | > 50 µM (inactive) | > 50 µM (inactive) | > 50 µM (inactive) | > 50 µM (inactive) | > 50 µM (inactive) | > 50 µM (inactive)
13 | Nc1n2nc(-c3ccccc3)sc2n[n+]1CC(=O)c1ccccc1 | 25.1 µM (inactive) | 21.2 µM (inactive) | 12.3 µM (inactive) | 31.6 µM (inactive) | 12.5 µM (inactive) |  | 12.9 µM | 9.53 µM (inactive) | 10.1 µM (inactive) | 5.37 µM (inactive) | 13.8 µM (inactive) | 15.8 µM (inactive) | 14.7 µM (inactive) | 47.2 µM (inactive) | 10.8 µM (inactive) | 14 µM (inactive) | 6.78 µM (inactive) | 21.7 µM (inactive) | 26.1 µM (inactive) | 11.5 µM (inactive)
14 | C/C(=N\Nc1nc2ccccc2n1C)c1ccncn1 | 0.14 µM (active) | 0.128 µM (active) | < 0.01 µM (active) | < 0.02 µM (active) | 3.39 µM (inactive) | < 0.01 µM (active) | < 0.0186 µM | < 0.0259 µM (active) | 0.0408 µM (active) | 0.0206 µM (active) | 0.0402 µM (active) | 0.0393 µM (active) |  | 0.17 µM (active) | 1.55 µM (inactive) | 0.476 µM (active) | 0.313 µM (active) | 0.65 µM (active) | 0.0382 µM (active) | 0.23 µM (active)
15 | COC(=O)C1[C@H](C(=O)OC)C1(Br)CBr (some centres not stated) | > 100 µM (inactive) | > 100 µM (inactive) | > 100 µM (inactive) | > 100 µM (inactive) | > 100 µM (inactive) | > 100 µM (inactive) | > 100 µM | > 100 µM (inactive) | > 100 µM (inactive) | > 100 µM (inactive) | > 100 µM (inactive) | 8.95 µM (inactive) | > 100 µM (inactive) | > 100 µM (inactive) | > 100 µM (inactive) | > 100 µM (inactive) | > 100 µM (inactive) | > 100 µM (inactive) | > 100 µM (inactive) | > 100 µM (inactive)
